Read-outs that look alike come from different tables or passages of the source.

In this test the test system is patients with probable MSA. The test is classed as in vivo, human. Particulars: average of five patients, oral 200 mg daily. Here is the method:
Five patients fulfilled the consensus criteria for “probable MSA” and received oral Nilotinib 200 mg daily for 24 weeks. Disease progression was monitored every 4 weeks by measuring the patient's motor and non-motor symptoms with the Unified Multiple System Atrophy Rating Scale (UMSARS). Mini Mental State Examination (MMSE) was used to screen for cognitive impairment. […] However, these AEs resolved with continued administration of the drug. […] Furthermore, there was a significant decline of 6.8 and 2.2 points in the UMSARS and UMSARS-II, respectively, compared to baseline (see FIG. 2). MMSE results were normal throughout treatment.

Consider `Cc1cn(-c2cc(NC(=O)c3ccc(C)c(Nc4nccc(-c5cccnc5)n4)c3)cc(C(F)(F)F)c2)cn1` [Nilotinib], for which the “UMSARS, Average” value reads like this: (Week 4) 52.6 points; (Week 8) 52.4 points; (Week 12) 50.8 points; (Week 16) 49.4 points; (Week 20) 47.8 points; (Week 24) 46.6 points. Moreover, the “UMSARS-II, Average” value (Week 4) came out at 22.2 points; the “UMSARS-II, Average” value (Week 8) worked out at 22.2 points; the “UMSARS-II, Average” value (Week 12) is given as 22 points; the “UMSARS-II, Average” value (Week 16) turned out to be 21.6 points; the “UMSARS-II, Average” value (Week 20) stood at 21.2 points; the “UMSARS-II, Average” value (Week 24) is 20.6 points.

For the origin of these results see patent publication US20190038624A1 (priority 2017, published 2019).
